Measured values reported in patent US12398154B2, “Azaquinazoline pan-KRas inhibitors” (Mirati Therapeutics, Inc., priority 2020, dated 2025).

Assays:
[1] = molecular target: T1, KRas G13D (Homo sapiens, UniProt P01116, G13D); assay: KRas binding assay (TR-FRET displacement);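 also: One-hour room temperature incubation before TR-FRET reading, IC50 from a four-parameter curve fit to percent-of-control data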
T1 construct: Biotinylated KRas (corresponding to amino acids 1-169, produced at Accelegan Inc.); biotin (biotinylated); purchased Accelegan Inc
T1 sequence (P01116 1-169 isoform P01116-2 G13D): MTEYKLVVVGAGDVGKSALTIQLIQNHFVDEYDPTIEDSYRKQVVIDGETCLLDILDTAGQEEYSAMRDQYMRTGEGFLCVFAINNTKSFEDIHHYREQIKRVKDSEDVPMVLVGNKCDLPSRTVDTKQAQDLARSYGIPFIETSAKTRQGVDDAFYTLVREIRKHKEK
Procedure: (§5) The ability of a compound to bind to KRas was measured using a TR-FRET displacement assay. […] After a 60-minute incubation at room temperature, the reaction was measured using a BMG LABTECH CLARIO star Plus via TR-FRET. […] The POC values were fit to a 4-parameter IC50 equation and the IC50 value reported.

[2] = molecular target: KRas G12C (Homo sapiens, UniProt P01116, G12C); assay: biochemical;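 also: binding to KRas assessed by TR-FRET displacement after one hour incubation at room temperature, potency fitted from percent-of-control values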
Sequence of KRas G12C (P01116 1-169 isoform P01116-2 G12C): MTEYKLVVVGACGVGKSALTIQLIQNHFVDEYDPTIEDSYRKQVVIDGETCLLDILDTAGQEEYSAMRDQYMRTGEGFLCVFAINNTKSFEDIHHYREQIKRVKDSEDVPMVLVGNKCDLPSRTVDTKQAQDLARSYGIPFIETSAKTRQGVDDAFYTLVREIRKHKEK
Procedure: as §5

[3] = molecular target: KRas G12D (Homo sapiens, UniProt P01116, G12D); assay: biochemical;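 also: TR-FRET displacement binding assay on KRas, read after a one-hour incubation at room temperature, IC50 fitted from percent-of-control values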
Sequence of KRas G12D (P01116 1-169 isoform P01116-2 G12D): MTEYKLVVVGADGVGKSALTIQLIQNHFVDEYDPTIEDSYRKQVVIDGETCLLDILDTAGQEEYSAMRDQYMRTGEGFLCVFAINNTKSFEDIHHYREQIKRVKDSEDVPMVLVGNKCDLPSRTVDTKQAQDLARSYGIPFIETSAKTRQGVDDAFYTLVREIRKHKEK
Procedure: as §5

[4] = molecular target: T2, KRas Q61H (Homo sapiens, UniProt P01116, Q61H); assay: KRas binding assay (TR-FRET displacement);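 also: TR-FRET signal read after one hour at room temperature, IC50 derived by four-parameter fitting of percent-of-control values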
T2 construct: Biotinylated KRas (corresponding to amino acids 1-169, produced at Accelegan Inc.); biotin (biotinylated); purchased Accelegan Inc
T2 sequence (P01116 1-169 isoform P01116-2 Q61H): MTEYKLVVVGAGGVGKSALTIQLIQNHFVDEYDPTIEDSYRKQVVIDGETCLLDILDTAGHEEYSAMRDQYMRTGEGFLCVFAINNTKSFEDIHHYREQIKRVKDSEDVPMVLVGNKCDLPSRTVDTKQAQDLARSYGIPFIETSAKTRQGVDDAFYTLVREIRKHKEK
Procedure: as §5

[5] = molecular target: KRas G12S (Homo sapiens, UniProt P01116, G12S); assay: biochemical;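 also: TR-FRET displacement binding to KRas, read after one hour incubation at room temperature, IC50 from four-parameter fit of percent of control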
Sequence of KRas G12S (P01116 1-169 isoform P01116-2 G12S): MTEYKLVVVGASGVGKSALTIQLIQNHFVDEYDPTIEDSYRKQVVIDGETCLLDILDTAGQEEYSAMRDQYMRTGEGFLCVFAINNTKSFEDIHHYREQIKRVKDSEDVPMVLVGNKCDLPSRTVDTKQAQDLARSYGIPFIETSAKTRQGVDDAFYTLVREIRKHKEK
Procedure: as §5

[6] = molecular target: KRas G12A (Homo sapiens, UniProt P01116, G12A); assay: biochemical;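 also: binding to KRas measured by TR-FRET displacement after one hour at room temperature, IC50 from a four-parameter fit of percent-of-control values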
Sequence of KRas G12A (P01116 1-169 isoform P01116-2 G12A): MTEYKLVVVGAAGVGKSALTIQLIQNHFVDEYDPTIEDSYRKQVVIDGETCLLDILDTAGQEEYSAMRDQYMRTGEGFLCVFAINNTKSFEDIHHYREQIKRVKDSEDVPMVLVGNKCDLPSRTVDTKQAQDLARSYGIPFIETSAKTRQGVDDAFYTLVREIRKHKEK
Procedure: as §5

[7] = molecular target: KRas WT (Homo sapiens, UniProt P01116); assay: biochemical;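 also: binding to KRas read as TR-FRET displacement after a one-hour room-temperature incubation, IC50 derived from percent-of-control values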
Sequence of KRas WT (P01116 1-169 isoform P01116-2): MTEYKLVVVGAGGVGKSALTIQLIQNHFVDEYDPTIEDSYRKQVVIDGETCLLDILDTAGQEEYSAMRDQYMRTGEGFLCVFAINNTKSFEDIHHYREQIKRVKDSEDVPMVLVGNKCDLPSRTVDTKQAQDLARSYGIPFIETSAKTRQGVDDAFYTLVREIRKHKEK
Procedure: as §5

[8] = system: phospho-ERK in AsPC-1 (G12D) cells; assay: Inhibition of KRas-mediated phosphorylation of ERK (in-cell western); type: cell-based; conditions: Homo sapiens, ASPC1, 3 h, 3 hours compound, phospho-ERK normalized to GAPDH
Procedure: (§1) Diluted compounds were then added in a final concentration of 0.5% DMSO. After 3 hours, 50 μL of 4.0% formaldehyde was added and the plates incubated at room temperature for 20 minutes. The plates were then dumped and permeabilized with 150 μL of ice cold 100% methanol for 10 minutes.
(§2) The amount of phospho-ERK was determined using an antibody specific for the phosphorylated form of ERK and compared to the amount of GAPDH. […] The plates were incubated overnight at 4° C. The plates were washed 3× with 150 uL PBS+0.1% Tween 20.
(§3) The plates were washed 3× with 150 uL PBS+0.1% Tween 20. Plates were imaged dry on a Li-COR Odyssey CLX plate reader.
(§4) The phospho-ERK (Thr202/Tyr204) signal was normalized to the GAPDH signal for each well and percent of DMSO control values were calculated. IC50 values were generated using a 4-parameter fit of the dose response curve.

[9] = system: phospho-ERK in NCI-H727 (G12V) cells; assay: as above; type: cell-based; conditions: Homo sapiens, NCI-H727, 3 h, 3 hours compound, phospho-ERK normalized to GAPDH
Procedure: as §1, §2, §3, §4

[10] = system: phospho-ERK in NCI-H460 (Q61H) cells; assay: as above; type: cell-based; conditions: Homo sapiens, NCI-H460, 3 h, 3 hours compound, phospho-ERK normalized to GAPDH
Procedure: as §1, §2, §3, §4

[11] = molecular target: KRas G12V (Homo sapiens, UniProt P01116, G12V); assay: biochemical;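 also: KRas binding measured by TR-FRET displacement at room temperature, IC50 fitted from percent of control values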
Sequence of KRas G12V (P01116 1-169 isoform P01116-2 G12V): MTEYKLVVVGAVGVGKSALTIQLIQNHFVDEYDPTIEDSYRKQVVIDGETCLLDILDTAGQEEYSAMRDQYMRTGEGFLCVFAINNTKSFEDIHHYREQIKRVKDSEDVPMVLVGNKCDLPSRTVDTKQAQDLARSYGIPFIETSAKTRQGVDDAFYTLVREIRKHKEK
Procedure: as §5

[12] = molecular target: KRas G12R (Homo sapiens, UniProt P01116, G12R); assay: biochemical;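 also: TR-FRET displacement assay of compound binding to KRas, read after one hour at room temperature, potency from a four-parameter fit of percent-of-control values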
Sequence of KRas G12R (P01116 1-169 isoform P01116-2 G12R): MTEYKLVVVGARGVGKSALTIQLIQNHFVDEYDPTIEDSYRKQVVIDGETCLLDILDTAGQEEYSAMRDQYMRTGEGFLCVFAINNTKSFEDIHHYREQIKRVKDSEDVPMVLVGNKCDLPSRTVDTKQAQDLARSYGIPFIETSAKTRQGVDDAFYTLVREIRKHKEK
Procedure: as §5

[13] = system: pERK in A549 cells; assay: Inhibition of KRas phosphorylation of ERK (Cisbio HTRF pERK assay); conditions: Homo sapiens, A549, read-out: Inhibition (HTRF IC50) of KRas-mediated Phosphorylation of ERK, A549
Procedure: (§6) To harvest cells from flask using 0.05% Trypsin/EDTA solution. Add 10 mL of media to stop trypsinizing. Pipette the cells into a conical bottom 50 mL centrifuge tube and centrifuge 5 min×1000 rpm. • 2. Re-suspend the cell pellet in media, take a cell count, and then adjust the cell density using fresh media. • 3. Seed 6,000 cells into cell culture plate with 50 μL media. […] Incubate cell plate overnight in a 37° C., 5% CO2 incubator. • Compound titrations • 1. Use Tecan to complete the compound addition. Compounds start from 10 uM top, 3-fold dilution, and 10 doses. The final DMSO concentration is 0.8%. Dispensed 0.2 uM Trametinib as Min control. • 2. Incubate cell plate for 3 hrs in the incubator. • Detection with cisbio pERK HTRF kit • 1. […] At the end of the compound treatment, flick-off the media. • 3. Add 35 μL of lysis buffer per well using a Multidrop Combi. Then place on a plate agitator shaking at 300 rpm at 4° C. for 40 mins. • 4. Make up the HTRF antibody buffer. For each assay plate, mix 50 μL of d2-conjugate antibody with 950 μL of detection buffer. Similarly, mix 50 μL of Cryptate antibody with 950 μL of detection buffer. Then mix the two diluted antibodies together. • 5. Dispense 3.4 μL the antibody buffer to wells of an empty assay plate. Seal the plate and centrifuge plate 30 sec×1000 rpm. • 6. At the end of the 4° C. lysis, centrifuge the lysate plates 3 mins×1500 rpm. • 7. Use the Bravo to transfer 13.6 μL of lysate from cell culture plate to assay plate.
(§7) Then incubate assay plate for 2 hrs at room temperature. […] At the end of incubation, read plate on the Envision after centrifuging plate 30 sec× • 1000 rpm.

[14] = system: pERK in PSN1 cells; assay: as above; conditions: Homo sapiens, PSN1, 3 h, read-out: Inhibition (HTRF IC50) of KRas-mediated Phosphorylation of ERK, PSN1
[15] = system: pERK in ASPC1 cells; assay: as above; conditions: Homo sapiens, ASPC1, read-out: Inhibition (HTRF IC50) of KRas-mediated Phosphorylation of ERK, AsPC-1
[16] = system: pERK in MKN1 cells; assay: as above; conditions: Homo sapiens, MKN-1, 3 h, read-out: Inhibition (HTRF IC50) of KRas-mediated Phosphorylation of ERK, MKN1
Procedure: as §6, §7

[17] = system: pERK in HCT116 cells; assay: as above; conditions: Homo sapiens, HCT-116, read-out: Inhibition (HTRF IC50) of KRas-mediated Phosphorylation of ERK, HCT116
[18] = system: pERK in H727 cells; assay: as above; conditions: Homo sapiens, NCI-H727, read-out: Inhibition (HTRF IC50) of KRas-mediated Phosphorylation of ERK, H727
Procedure: as §6, §7

[19] = system: pERK in H460 cells; assay: as above; conditions: Homo sapiens, NCI-H460, read-out: Inhibition (HTRF IC50) of KRas-mediated Phosphorylation of ERK, H460

IC50 [1] [nM] | IC50 [2] [nM] | IC50 [3] [nM] | IC50 [4] [nM] | IC50 [5] [nM] | IC50 [6] [nM] | IC50 [7] [nM] | IC50 [11] [nM] | IC50 [12] [nM] | IC50 [13] [nM] | IC50 [14] [nM] | IC50 [15] [nM] | IC50 [16] [nM] | IC50 [17] [nM] | IC50 [18] [nM] | IC50 [19] [nM] | SMILES | IC50 [8] [nM] | IC50 [9] [nM] | IC50 [10] [nM]
8 | 7 | 6 | 7 | 7 | 7 | 6 | 5 | 10 | – | – | – | – | – | – | – | C[C@H]1C[C@H]1c1c(Cl)cc2[nH]ncc2c1-c1ncc2c(N3CCC[C@@](C)(O)C3)nc(OC[C@@]34CCCN3C[C@H](F)C4)nc2c1F (racemic) [Example 153, (3R)-1-(7-(6-chloro-5-(2-methylcyclopropyl)-1H-indazol-4-yl)-8-fluoro-2-(((2R,7aS)-2-fluorotetrahydro-1H-pyrrolizin-7a(5H)-yl)methoxy)pyrido[4,3-d]pyrimidin-4-yl)-3-methylpiperidin-3-ol] | 233 | 500 | 306
– | – | ≤ 2 | – | – | – | – | ≤ 2 | ≤ 2 | – | ≥ 10000 | – | 29 | – | – | – | CCc1c(F)ccc2cc(O)cc(-c3ncc4c(N5CCC[C@@](C)(O)C5)nc(OC[C@@]56CCCN5[C@H](CO)CC6)nc4c3F)c12 [Example 304, (R)-1-(7-(8-ethyl-7-fluoro-3-hydroxynaphthalen-1-yl)-8-fluoro-2-(((3S,7aS)-3-(hydroxymethyl)hexahydro-1H-pyrrolizin-7a-yl)methoxy)pyrido[4,3-d]pyrimidin-4-yl)-3-methylpiperidin-3-ol] | 1370 | 2580 | 804
– | – | 6 | – | – | – | – | 4 | 10 | – | ≥ 10000 | 155 | 40 | 284 | 278 | – | CCc1c(F)ccc2cc(O)cc(-c3ncc4c(N5CCCCC(S(C)(=O)=O)C5)nc(OC[C@@]56CCCN5C[C@H](F)C6)nc4c3F)c12 (stereo partly drawn) [Example 308, 5-ethyl-6-fluoro-4-(8-fluoro-2-(((2R,7aS)-2-fluorohexahydro-1H-pyrrolizin-7a-yl)methoxy)-4-(3-(methylsulfonyl)azepan-1-yl)pyrido[4,3-d]pyrimidin-7-yl)naphthalen-2-ol] | 489 | 627 | 372
– | – | ≤ 2 | – | – | – | – | ≤ 2 | ≤ 2 | – | ≥ 10000 | – | 15 | – | – | – | CCc1c(F)ccc2cc(O)cc(-c3ncc4c(N5CCC[C@@](C)(O)C5)nc(OC[C@@]56CCCN5C[C@H](O)C6)nc4c3F)c12 [Example 311, (2R,7aS)-7a-(((7-(8-ethyl-7-fluoro-3-hydroxynaphthalen-1-yl)-8-fluoro-4-((R)-3-hydroxy-3-methylpiperidin-1-yl)pyrido[4,3-d]pyrimidin-2-yl)oxy)methyl)hexahydro-1H-pyrrolizin-2-ol] | 738 | 2600 | 501
– | – | ≤ 2 | – | – | – | – | ≤ 2 | ≤ 2 | 183 | 3280 | 339 | 28 | 896 | 425 | – | CN(C)CC1(COc2nc(N3CCCC4(CNS(=O)(=O)N4)C3)c3cnc(-c4cc(O)cc5ccc(F)c(Cl)c45)c(F)c3n2)CC1 (centres unmarked) [Example 428, 7-(7-(8-chloro-7-fluoro-3-hydroxynaphthalen-1-yl)-2-((1-((dimethylamino)methyl)cyclopropyl)methoxy)-8-fluoropyrido[4,3-d]pyrimidin-4-yl)-2-thia-1,3,7-triazaspiro[4.5]decane 2,2-dioxide] | – | – | –
– | – | 4 | – | – | – | – | ≤ 2 | ≤ 2 | – | ≥ 10000 | – | 8200 | – | – | – | O=C1NCC2(CCCN(c3nc(OC[C@@]45CCCN4C[C@H](F)C5)nc4c(F)c(-c5cc(O)cc6ccc(F)c(F)c56)ncc34)C2)N1 (stereo partly drawn) [Example 445, 7-(7-(7,8-difluoro-3-hydroxynaphthalen-1-yl)-8-fluoro-2-(((2R,7aS)-2-fluorohexahydro-1H-pyrrolizin-7a-yl)methoxy)pyrido[4,3-d]pyrimidin-4-yl)-1,3,7-triazaspiro[4.5]decan-2-one] | 1620 | 2930 | 1190
– | – | 4 | – | – | – | – | ≤ 2 | 4 | – | ≥ 10000 | – | 786 | – | – | – | O=C1CC2(CCCN(c3nc(OC[C@@]45CCCN4C[C@H](F)C5)nc4c(F)c(-c5cc(O)cc6ccc(F)c(F)c56)ncc34)C2)CN1 (stereo partly drawn) [Example 446, 7-(7-(7,8-difluoro-3-hydroxynaphthalen-1-yl)-8-fluoro-2-(((2R,7aS)-2-fluorohexahydro-1H-pyrrolizin-7a-yl)methoxy)pyrido[4,3-d]pyrimidin-4-yl)-2,7-diazaspiro[4.5]decan-3-one] | 3670 | 2500 | 2190
– | 822 | 537 | – | 821 | 815 | 688 | 766 | 1010 | – | – | – | – | – | – | – | Cc1cc(N)nc(-c2ncc3c(N4CCCC(C)(O)C4)nc(OC[C@@]45CCCN4C[C@H](F)C5)nc3c2F)c1C(F)(F)F (stereo partly drawn) [Example 459, 1-(7-(6-amino-4-methyl-3-(trifluoromethyl)pyridin-2-yl)-8-fluoro-2-(((2R,7aS)-2-fluorohexahydro-1H-pyrrolizin-7a-yl)methoxy)pyrido[4,3-d]pyrimidin-4-yl)-3-methylpiperidin-3-ol] | 9940 | ≥ 10000 | ≥ 10000
– | – | ≤ 2 | – | – | – | – | ≤ 2 | 3 | 390 | ≥ 10000 | 546 | 26 | – | 128 | 124 | CCc1c(F)ccc2cc(O)cc(-c3ncc4c(N5CC6C(=O)NC(=O)C6(C)C5)nc(OC[C@@]56CCCN5C[C@H](F)C6)nc4c3F)c12 (stereo partly drawn) [Example 482, 5-(7-(8-ethyl-7-fluoro-3-hydroxynaphthalen-1-yl)-8-fluoro-2-(((2R,7aS)-2-fluorohexahydro-1H-pyrrolizin-7a-yl)methoxy)pyrido[4,3-d]pyrimidin-4-yl)-3a-methyltetrahydropyrrolo[3,4-c]pyrrole-1,3(2H,3aH)-dione] | – | – | –

SMILES | IC50 [1] [nM] | IC50 [2] [nM] | IC50 [3] [nM] | IC50 [4] [nM] | IC50 [5] [nM] | IC50 [6] [nM] | IC50 [7] [nM] | IC50 [11] [nM] | IC50 [12] [nM] | IC50 [13] [nM] | IC50 [14] [nM] | IC50 [15] [nM] | IC50 [16] [nM] | IC50 [17] [nM] | IC50 [18] [nM] | IC50 [19] [nM] | IC50 [8] [nM] | IC50 [9] [nM] | IC50 [10] [nM]
CCc1c(F)ccc2cc(O)cc(-c3ncc4c(N5CCC[C@@](C)(O)C5)nc(OC[C@@]56CCCN5C[C@H](F)C6)nc4c3F)c12 [Example 5] | – | – | – | – | – | – | – | – | – | 2 | 364 | 2 | – | – | – | – | – | – | –
